Reference: patent publication EP3677663A1, “NON-ENZYMATIC REMOVAL OF PROTEINACEOUS SOILS” (Henkel AG & Co. KGaA, priority 2019, dated 2020)

Key:
Whey protein = assay: Hydrolysis of unaltered Whey protein by polyoxometalates, monitored by SDS-PAGE; assay type: biochemical; settings: 60°C, 1.5 mg/ml Whey protein, polyoxometalate 14 mg/ml
Method: (§1) All gels were 100x100x1 mm and the stacking gel was approximately 1 cm long from the bottom of the comb to the top of the resolving gel resulting in a resolving gel of 8 cm. 2. Table 1: Composition of the solutions to prepare 18% resolving and 5% stacking gel.
(§2) After pouring the resolving gel, a thin layer of isopropanol was carefully added on top of the gel. The resolving gel was left 1 hour to harden, and isopropanol was removed before pouring the stacking gel. A 12 well comb was placed inside the stacking gel and left to harden for an additional hour. The finished gels were kept in the fridge.
(§3) Samples were prepared by mixing a 10 µl of sample with 5 µl of 3X sample buffer (225 µl TRIS/HCI buffer (1M, pH 6.8), 630 mg glycerol, 50 mg SDS, 0.5 mg bromophenol blue and 250 µl 1 M DTI), incubating at 95 °C for 5 minutes and centrifuging the samples after they are cooled to room temperature. The wells of the stacking gel were loaded with 10 µl of sample and 5 µl of protein ladder.
(§4) An OmniPAGE electrophoretic cell was combined with an EV243 power supply (both produced by Consort) in experiments at 30 mA/gel and 100 V/gel for the 18% resolving gel (approximately 2.5 hours) and 20 mA/gel and 100 V/gel for the 12% resolving gel (approximately 1.5 hours). As anode and cathode buffer a TRIS/Tricine running buffer (0.1 M TRIS, 0.1 M Tricine and 0.1 wt/vol% SDS) was used for 18% gels and a TRIS/Glycine running buffer (0.2 M Glycine, 0.025 M TRIS and 0.1 wt/vol% SDS) for 12% gels. Before staining the gels were fixed for 1 hour in a 12 wt/vol% TCA solution. The staining was done by leaving the gels in a colloidal coomassie blue solution (700 ml H2O, 100 ml H3PO4, […], 1.2 g coomassie blue and 200 ml methanol) over night and subsequently destained with a heavy destain solution {60 ml methanol, 20 ml acetic acid and 120 ml water) and water. Finally, the gels were analyzed with a Gel Doc EZ imager and Image LabTM Software (both supplied by Bio-Rad). The kinetics of the reactions were studied by plotting the relative intensity of the intact proteins band in function of time and fitted to the exponential expression of a pseudo first-order reaction: I = I0 e^-kobst
(§5) In this equation I represents the intensity in function of time t, I0 the intensity at time 0 and kobs is the observed hydrolysis rate. The half-life (t½) of the intact protein was calculated according to t½ = (ln(2))/(kobs) [formula]
(§6) To solutions of 1.0 mg/ml solution of unaltered Ovalbumin or the Lactose/Ovalbumin Maillard reaction samples of example 4 or of 1.5 mg/ml solution of unaltered Whey protein or the Lactose/Whey protein Maillard reaction samples of example 4 were added the polyoxometalates of examples 1 to 3 at a concentration of 14 mg/ml. The rate of hydrolysis for the proteins at 60°C at pH 4 (sodium citrate buffer, 10 mM) and 9 (glycine/NaOH buffer, 10 mM) was studied over time. Results for the hydrolysis rate and the half-life of the unaltered protein samples are given in tables 5 and 6 and results for the half-life of altered proteinaceous samples of example 4 (treated at pH 9) are given in table 7. Table 5: Hydrolysis of unaltered Whey protein

Ovalbumin = target: T1, Ovalbumin (Gallus gallus, UniProt P01012); assay: Hydrolysis of unaltered Ovalbumin by polyoxometalates, monitored by SDS-PAGE; assay type: biochemical, chicken; settings: 60°C, 1.0 mg/ml Ovalbumin, polyoxometalate 14 mg/ml
T1 construct: Ovalbumin from chicken egg was purchased from Acros (Mw 44.5 kDa); purchased Acros; host or cells: chicken egg
T1 sequence (P01012 1-386): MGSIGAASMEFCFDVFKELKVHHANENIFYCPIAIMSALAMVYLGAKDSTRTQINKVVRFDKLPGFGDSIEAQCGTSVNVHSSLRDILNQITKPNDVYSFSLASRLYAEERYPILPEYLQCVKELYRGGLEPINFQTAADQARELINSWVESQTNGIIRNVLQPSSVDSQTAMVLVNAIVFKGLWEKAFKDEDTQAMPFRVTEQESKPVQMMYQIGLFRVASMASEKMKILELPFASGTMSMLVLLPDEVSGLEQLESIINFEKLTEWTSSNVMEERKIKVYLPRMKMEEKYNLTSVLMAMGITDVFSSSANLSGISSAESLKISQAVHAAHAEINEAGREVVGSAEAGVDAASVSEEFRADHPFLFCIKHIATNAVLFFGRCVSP
Method: as §1, §2, §3, §4, §5, §6

[1] = pH 4 (sodium citrate buffer, 10 mM)
[2] = pH 9 (glycine/NaOH buffer, 10 mM)

Rate x 10^-3 [min^-1] (Ovalbumin; [1])	Rate x 10^-3 [min^-1] (Ovalbumin; [2])	Substance	Rate x 10^-3 [min^-1] (Whey protein; [1])	Rate x 10^-3 [min^-1] (Whey protein; [2])
4.3±0.4 x 10^-3 min^-1	5±2 x 10^-3 min^-1	((C2H5)2NH2)10[Zr(PW11O39)2] [ZrKe2]	1.8±0.7 x 10^-3 min^-1	6±1 x 10^-3 min^-1
6±2 x 10^-3 min^-1	7±1 x 10^-3 min^-1	K10[Ce(PW11O39)2] [CeKe2]	9±5 x 10^-3 min^-1	5.30±0.04 x 10^-3 min^-1
6±3 x 10^-3 min^-1	7±3 x 10^-3 min^-1	((C2H5)2NH2)6[Zr2(PW11O39)2] [Zr2Ke2]	3.8±0.8 x 10^-3 min^-1	1±1 x 10^-3 min^-1
